Measured values reported in patent publication US6737383B1, “Herbicidal oxadiazolidines” (priority 1999, dated 2004).

Assays:
morningglory = experiment: Test B pre/postemergence morningglory; format: in vivo, Ipomoea hederacea
Procedure, shortened: (§1)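 Test chemicals in a non-phytotoxic solvent mixture with surfactant were sprayed preemergence onto planted seeds and postemergence onto plants 2 to 18 cm tall (1- to 4-leaf stage). After twelve to sixteen days in a greenhouse, injury was visually rated against untreated controls from 0 (no effect) to 10 (complete control).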

giant foxtail = experiment: Test B pre/postemergence giant foxtail; format: in vivo, Setaria faberii
Procedure, shortened: as §1

cocklebur = experiment: Test B pre/postemergence cocklebur; format: in vivo, Xanthium strumarium
Procedure, shortened: as §1

bamyardgrass = experiment: Test B flood test barnyardgrass; format: in vivo, Echinochloa crus-galli
Procedure, shortened: (§2)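 Flood test on plants grown to the 2-leaf stage; treated plants kept in greenhouse twelve to sixteen days, then visually rated against controls on a 0 (no effect) to 10 (complete control) scale.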

bedstraw = experiment: Test B pre/postemergence bedstraw; format: in vivo, Galium aparine
Procedure, shortened: as §1

duck salad = experiment: Test B flood test duck salad; format: in vivo, Heteranthera limosa
Procedure, shortened: as §2

purple nutsedge = experiment: Test B pre/postemergence purple nutsedge; format: in vivo, Cyperus rotundus
Procedure, shortened: as §1

sugar beet = experiment: Test B pre/postemergence sugar beet; format: in vivo, Beta vulgaris
Procedure, shortened: as §1

rape = experiment: Test B pre/postemergence rape; format: in vivo, Brassica napus
Procedure, shortened: as §1

soybean = experiment: Test B pre/postemergence soybean; format: in vivo, Glycine max
Procedure, shortened: as §1

blackgrass = experiment: Test B pre/postemergence blackgrass; format: in vivo, Alopecurus myosuroides
Procedure, shortened: as §1

pigweed = experiment: Test B pre/postemergence pigweed; format: in vivo, Amaranthus retroflexus
Procedure, shortened: as §1

wild oat = experiment: Test B pre/postemergence wild oat; format: in vivo, Avena fatua
Procedure, shortened: as §1

surinam grass = experiment: Test B pre/postemergence surinam grass; format: in vivo, Brachiaria decumbens
Procedure, shortened: as §1

wheat = experiment: Test B pre/postemergence wheat; format: in vivo, Triticum aestivum
Procedure, shortened: as §1

smallflower flatsedge = experiment: Test B flood test smallflower flatsedge; format: in vivo, Cyperus difformis
Procedure, shortened: as §2

[1] = Postemergence, Rate 62 g/ha, scale 0 to 10, 0 is no effect, 10 is complete control
[2] = Postemergence, Rate 250 g/ha, scale 0 to 10, 0 no effect, 10 complete control
[3] = Preemergence, Rate 62 g/ha, scale 0 to 10 (0 no effect, 10 complete control)
[4] = Preemergence, Rate 125 g/ha, scale 0 to 10 (0 no effect, 10 complete control)
[5] = Preemergence, Rate 250 g/ha, scale of 0 to 10 where 0 is no effect and 10 is complete control
[6] = Preemergence, Rate 500 g/ha, scale 0 (no effect) to 10 (complete control)
[7] = Rate 125 g/ha, Postemergence, scale 0 to 10, 0 no effect, 10 complete control
[8] = Rate 500 g/ha, Postemergence, scale 0 to 10, 0 no effect, 10 complete control
[9] = Rate 31 g/ha, Postemergence section (flood test species), scale 0 to 10
[10] = Rate 125 g/ha, Postemergence section (flood test species), scale 0 to 10, 0 no effect, 10 complete control
[11] = Rate 250 g/ha, headed Pre-emergence (flood test species), scale 0 to 10 (0 no effect, 10 complete control)
[12] = Rate 500 g/ha, headed Pre-emergence (flood test species), scale 0 to 10 (0 no effect, 10 complete control)
[13] = Rate 1000 g/ha, Pre-emergence (as headed), scale 0 to 10
[14] = flood test, listed under Postemergence, Rate 250 g/ha, scale 0 to 10, 0 no effect, 10 complete control
[15] = Rate 2000 g/ha, Pre-emergence (as headed), scale 0 to 10

Cc1ccccc1Cn1c(=O)on(C(=O)N(c2ccc(F)cc2F)C(C)C)c1=O [Compound 87]
Morningglory plant response rating (morningglory; [1]): 4 | Morningglory plant response rating (morningglory; [2]): 7 | Morningglory plant response rating (morningglory; [3]): 0 | Plant response rating, Morningglory (morningglory; [4]): 0 | Plant response rating, Morningglory (morningglory; [5]): 0 | Morningglory plant response rating (morningglory; [6]): 0 | Morningglory plant response rating (morningglory; [7]): 7 | Morningglory plant response rating (morningglory; [8]): 9 | Giant foxtail plant response rating (giant foxtail; [1]): 0 | Giant foxtail plant response rating (giant foxtail; [2]): 3 | Giant foxtail plant response rating (giant foxtail; [3]): 8 | Plant response rating, Giant foxtail (giant foxtail; [4]): 9 | Plant response rating, Giant foxtail (giant foxtail; [5]): 10 | Giant foxtail plant response rating (giant foxtail; [6]): 10 | Giant foxtail plant response rating (giant foxtail; [7]): 2 | Giant foxtail plant response rating (giant foxtail; [8]): 6 | Cocklebur plant response rating (cocklebur; [1]): 0 | Cocklebur plant response rating (cocklebur; [2]): 2 | Cocklebur plant response rating (cocklebur; [3]): 0 | Plant response rating, Cocklebur (cocklebur; [4]): 0 | Plant response rating, Cocklebur (cocklebur; [5]): 0 | Cocklebur plant response rating (cocklebur; [6]): 0 | Cocklebur plant response rating (cocklebur; [7]): 1 | Cocklebur plant response rating (cocklebur; [8]): 2 | Barnyardgrass plant response rating (bamyardgrass; [1]): 0 | Barnyardgrass plant response rating (bamyardgrass; [9]): 0 | Barnyardgrass plant response rating (bamyardgrass; [10]): 0 | Barnyardgrass plant response rating (bamyardgrass; [11]): 0 | Plant response rating, Barnyardgrass (bamyardgrass; [12]): 0 | Barnyardgrass plant response rating (bamyardgrass; [13]): 0 | Barnyardgrass plant response rating (bamyardgrass; Rate 2000 g/ha, Pre-emergence (as headed), scale 0 to 10, 0 no effect, 10 complete control): 0 | Barnyardgrass plant response rating (bamyardgrass; [14]): 0 | Bedstraw plant response rating (bedstraw; [1]): 2 | Bedstraw plant response rating (bedstraw; [2]): 6 | Bedstraw plant response rating (bedstraw; [3]): 0 | Plant response rating, Bedstraw (bedstraw; [4]): 0 | Plant response rating, Bedstraw (bedstraw; [5]): 0 | Bedstraw plant response rating (bedstraw; [6]): 3 | Bedstraw plant response rating (bedstraw; [7]): 4 | Bedstraw plant response rating (bedstraw; [8]): 8 | Ducksalad plant response rating (duck salad; [1]): 0 | Ducksalad plant response rating (duck salad; [9]): 0 | Ducksalad plant response rating (duck salad; [10]): 0 | Ducksalad plant response rating (duck salad; [11]): 0 | Plant response rating, Ducksalad (duck salad; [12]): 0 | Ducksalad plant response rating (duck salad; [13]): 0 | Ducksalad plant response rating (duck salad; [15]): 0 | Ducksalad plant response rating (duck salad; [14]): 0 | Nutsedge plant response rating (purple nutsedge; [1]): 0 | Nutsedge plant response rating (purple nutsedge; [2]): 0 | Nutsedge plant response rating (purple nutsedge; [3]): 0 | Plant response rating, Nutsedge (purple nutsedge; [4]): 0 | Plant response rating, Nutsedge (purple nutsedge; [5]): 0 | Nutsedge plant response rating (purple nutsedge; [6]): 0 | Nutsedge plant response rating (purple nutsedge; [7]): 0 | Nutsedge plant response rating (purple nutsedge; [8]): 0 | Sugarbeets plant response rating (sugar beet; [1]): 0 | Sugarbeets plant response rating (sugar beet; [2]): 3 | Sugarbeets plant response rating (sugar beet; [3]): 0 | Plant response rating, Sugarbeets (sugar beet; [4]): 0 | Plant response rating, Sugarbeets (sugar beet; [5]): 3 | Sugarbeets plant response rating (sugar beet; [6]): 9 | Sugarbeets plant response rating (sugar beet; [7]): 3 | Sugarbeets plant response rating (sugar beet; [8]): 8 | Rape plant response rating (rape; [1]): 0 | Rape plant response rating (rape; [2]): 2 | Rape plant response rating (rape; [3]): 0 | Plant response rating, Rape (rape; [4]): 0 | Plant response rating, Rape (rape; [5]): 0 | Rape plant response rating (rape; [6]): 5 | Rape plant response rating (rape; [7]): 0 | Rape plant response rating (rape; [8]): 3 | Soybean plant response rating (soybean; [1]): 2 | Soybean plant response rating (soybean; [2]): 2 | Soybean plant response rating (soybean; [3]): 0 | Plant response rating, Soybean (soybean; [4]): 0 | Plant response rating, Soybean (soybean; [5]): 0 | Soybean plant response rating (soybean; [6]): 4 | Soybean plant response rating (soybean; [7]): 2 | Soybean plant response rating (soybean; [8]): 5 | Blackgrass plant response rating (blackgrass; [1]): 0 | Blackgrass plant response rating (blackgrass; [2]): 1 | Blackgrass plant response rating (blackgrass; [3]): 2 | Plant response rating, Blackgrass (blackgrass; [4]): 3 | Plant response rating, Blackgrass (blackgrass; [5]): 5 | Blackgrass plant response rating (blackgrass; [6]): 7 | Blackgrass plant response rating (blackgrass; [7]): 0 | Blackgrass plant response rating (blackgrass; [8]): 4 | Redroot pigweed plant response rating (pigweed; [1]): 0 | Redroot pigweed plant response rating (pigweed; [2]): 5 | Redroot pigweed plant response rating (pigweed; [3]): 4 | Plant response rating, Redroot pigweed (pigweed; [4]): 4 | Plant response rating, Redroot pigweed (pigweed; [5]): 8 | Redroot pigweed plant response rating (pigweed; [6]): 10 | Redroot pigweed plant response rating (pigweed; [7]): 0 | Redroot pigweed plant response rating (pigweed; [8]): 2 | Wild oats plant response rating (wild oat; [1]): 0 | Wild oats plant response rating (wild oat; [2]): 0 | Wild oats plant response rating (wild oat; [3]): 0 | Plant response rating, Wild oats (wild oat; [4]): 0 | Plant response rating, Wild oats (wild oat; [5]): 4 | Wild oats plant response rating (wild oat; [6]): 3 | Wild oats plant response rating (wild oat; [7]): 0 | Wild oats plant response rating (wild oat; [8]): 3 | B. signalgrass plant response rating (surinam grass; [1]): 0 | B. signalgrass plant response rating (surinam grass; [2]): 0 | B. signalgrass plant response rating (surinam grass; [3]): 0 | Plant response rating, B. signalgrass (surinam grass; [4]): 2 | Plant response rating, B. signalgrass (surinam grass; [5]): 4 | B. signalgrass plant response rating (surinam grass; [6]): 5 | B. signalgrass plant response rating (surinam grass; [7]): 0 | B. signalgrass plant response rating (surinam grass; Rate 500 g/ha, Postemergence, scale of 0 to 10 where 0 is no effect and 10 is complete control): 2 | Wheat plant response rating (wheat; [1]): 0 | Wheat plant response rating (wheat; [2]): 0 | Wheat plant response rating (wheat; [3]): 0 | Plant response rating, Wheat (wheat; [4]): 0 | Plant response rating, Wheat (wheat; [5]): 0 | Wheat plant response rating (wheat; [6]): 0 | Wheat plant response rating (wheat; [7]): 0 | Wheat plant response rating (wheat; [8]): 2 | S. Flatsedge plant response rating (smallflower flatsedge; [1]): 0 | S. Flatsedge plant response rating (smallflower flatsedge; Pre-emergence, Rate 1000 g/ha, scale 0 to 10 (0 no effect, 10 complete control)): 0 | S. Flatsedge plant response rating (smallflower flatsedge; [10]): 0 | S. Flatsedge plant response rating (smallflower flatsedge; [11]): 0 | Plant response rating, S. Flatsedge (smallflower flatsedge; [12]): 0 | S. Flatsedge plant response rating (smallflower flatsedge; [15]): 0 | S. Flatsedge plant response rating (smallflower flatsedge; [14]): 0
